From ChEMBL document CHEMBL1127385, “Synthesis and diuretic activity of alkyl- and arylguanidine analogs of N,N'-dicyclohexyl-4-morpholinecarboxamidine in rats and dogs” (J Med Chem, 1994)

Assays:
Details in all cases: in vivo, po
Rattus norvegicus [1] = experiment: Total electrolytic excretion of chlorine in urine of rats after peroral administration of 34.8 uM/Kg of drug; assay type: ADME, organism-based
Rattus norvegicus [2] = experiment: Tested for the diuretic activity by measuring the urinary volume after peroral administering 105 uM/Kg of drug in rats; assay type: ADME, organism-based, Urine
Rattus norvegicus [3] = experiment: Total electrolytic excretion of sodium in urine of rats after peroral administration of 105 uM/Kg of drug; assay type: ADME, organism-based
Rattus norvegicus [4] = experiment: Tested for the diuretic activity by measuring the urinary volume after peroral administering 34.8 uM/Kg of drug in rats; assay type: ADME, organism-based, Urine
Rattus norvegicus [5] = experiment: Ratio of Total electrolytic excretion of sodium and potassium in urine of rats after peroral administration of 105 uM/Kg of drug; assay type: ADME, organism-based
Rattus norvegicus [6] = experiment: Total electrolytic excretion of potassium in urine of rats after peroral administration of 105 uM/Kg of drug; assay type: ADME, organism-based
Rattus norvegicus [7] = experiment: Total electrolytic excretion of sodium in urine of rats after peroral administration of 348 uM/Kg of drug; assay type: ADME, organism-based
Rattus norvegicus [8] = experiment: Ratio of Total electrolytic excretion of sodium and potassium in urine of rats after peroral administration of 34.8 uM/Kg of drug; assay type: ADME, organism-based
Rattus norvegicus [9] = experiment: Total electrolytic excretion of chlorine in urine of rats after peroral administration of 348 uM/Kg of drug; assay type: ADME, organism-based
Rattus norvegicus [10] = experiment: Total electrolytic excretion of sodium in urine of rats after peroral administration of 34.8 uM/Kg of drug; assay type: ADME, organism-based
Rattus norvegicus [11] = experiment: Tested for the diuretic activity by measuring the urinary volume after peroral administering 348 uM/Kg of drug in rats; assay type: ADME, organism-based, Urine
Rattus norvegicus [12] = experiment: Total electrolytic excretion of potassium in urine of rats after peroral administration of 348 uM/Kg of drug; assay type: ADME, organism-based
Rattus norvegicus [13] = experiment: Total electrolytic excretion of potassium in urine of rats after peroral administration of 34.8 uM/Kg of drug; assay type: ADME, organism-based
Rattus norvegicus [14] = experiment: Total electrolytic excretion of chlorine in urine of rats after peroral administration of 105 uM/Kg of drug; assay type: ADME, organism-based
Rattus norvegicus [15] = experiment: Ratio of Total electrolytic excretion of sodium and potassium in urine of rats after peroral administration of 348 uM/Kg of drug; assay type: ADME, organism-based
Rattus norvegicus [16] = experiment: Total electrolytic excretion of potassium in urine of rats after peroral administration of 217 uM/Kg of drug; assay type: ADME, organism-based
Rattus norvegicus [17] = experiment: Total electrolytic excretion of potassium in urine of rats after peroral administration of 21.7 uM/Kg of drug; assay type: ADME, organism-based
Rattus norvegicus [18] = experiment: Ratio of Total electrolytic excretion of sodium and potassium in urine of rats after peroral administration of 65.2 uM/Kg of drug; assay type: ADME, organism-based
Rattus norvegicus [19] = experiment: Total electrolytic excretion of sodium in urine of rats after peroral administration of 65.2 uM/Kg of drug; assay type: ADME, organism-based
Rattus norvegicus [20] = experiment: Total electrolytic excretion of chlorine in urine of rats after peroral administration of 217 uM/Kg of drug; assay type: ADME, organism-based
Rattus norvegicus [21] = experiment: Tested for the diuretic activity by measuring the urinary volume after peroral administering 217 uM/Kg of drug in rats; assay type: ADME, organism-based, Urine
Rattus norvegicus [22] = experiment: Tested for the diuretic activity by measuring the urinary volume after peroral administering 21.7 uM/Kg of drug in rats; assay type: ADME, organism-based, Urine
Rattus norvegicus [23] = experiment: Total electrolytic excretion of potassium in urine of rats after peroral administration of 65.2 uM/Kg of drug; assay type: ADME, organism-based
Rattus norvegicus [24] = experiment: Ratio of Total electrolytic excretion of sodium and potassium in urine of rats after peroral administration of 21.7 uM/Kg of drug; assay type: ADME, organism-based
Rattus norvegicus [25] = experiment: Ratio of Total electrolytic excretion of sodium and potassium in urine of rats after peroral administration of 217 uM/Kg of drug; assay type: ADME, organism-based
Rattus norvegicus [26] = experiment: Total electrolytic excretion of sodium in urine of rats after peroral administration of 21.7 uM/Kg of drug; assay type: ADME, organism-based
Rattus norvegicus [27] = experiment: Total electrolytic excretion of sodium in urine of rats after peroral administration of 217 uM/Kg of drug; assay type: ADME, organism-based
Rattus norvegicus [28] = experiment: Total electrolytic excretion of chlorine in urine of rats after peroral administration of 21.7 uM/Kg of drug; assay type: ADME, organism-based
Rattus norvegicus [29] = experiment: Total electrolytic excretion of chlorine in urine of rats after peroral administration of 65.2 uM/Kg of drug; assay type: ADME, organism-based
Rattus norvegicus [30] = experiment: Tested for the diuretic activity by measuring the urinary volume after peroral administering 65.2 uM/Kg of drug in rats; assay type: ADME, organism-based, Urine

For `c1ccc(N/C(=N/C2CCCCC2)N2CCOCC2)cc1`, the “Excretion Cl-” value (Rattus norvegicus [1]) was 1.04 m equiv, the V (Rattus norvegicus [2]) was 7.3 mL and the “Excretion Na+” value (Rattus norvegicus [3]) was 1.02 m equiv. For the same compound, the V (Rattus norvegicus [4]) was 5.6 mL, the Ratio (Rattus norvegicus [5]) was 2.8 and the “Excretion K+” value (Rattus norvegicus [6]) was 0.37 m equiv. For the same compound, the “Excretion Na+” value (Rattus norvegicus [7]) was 1.37 m equiv, the Ratio (Rattus norvegicus [8]) was 3.4 and the “Excretion Cl-” value (Rattus norvegicus [9]) was 1.39 m equiv. For the same compound, the “Excretion Na+” value (Rattus norvegicus [10]) was 0.93 m equiv, the V (Rattus norvegicus [11]) was 9 mL and the “Excretion K+” value (Rattus norvegicus [12]) was 0.4 m equiv. The “Excretion K+” value (Rattus norvegicus [13]) was 0.27 m equiv, the “Excretion Cl-” value (Rattus norvegicus [14]) was 1.12 m equiv and the Ratio (Rattus norvegicus [15]) was 3.4.
`Clc1ccc(CN/C(=N/C2CCCCC2)N2CCOCC2)cc1Cl` was tested, and the “Excretion K+” value (Rattus norvegicus [16]) was 0.15 m equiv, the “Excretion K+” value (Rattus norvegicus [17]) was 0.25 m equiv and the Ratio (Rattus norvegicus [18]) was 5.9. For the same compound, the “Excretion Na+” value (Rattus norvegicus [19]) was 1.55 m equiv, the “Excretion Cl-” value (Rattus norvegicus [20]) was 1.39 m equiv and the V (Rattus norvegicus [21]) was 8.7 mL. For the same compound, the V (Rattus norvegicus [22]) was 6.4 mL, the “Excretion K+” value (Rattus norvegicus [23]) was 0.26 m equiv and the Ratio (Rattus norvegicus [24]) was 3.8. The Ratio (Rattus norvegicus [25]) was 10.9, the “Excretion Na+” value (Rattus norvegicus [26]) was 0.96 m equiv and the “Excretion Na+” value (Rattus norvegicus [27]) was 1.59 m equiv. The “Excretion Cl-” value (Rattus norvegicus [28]) was 1.05 m equiv, the “Excretion Cl-” value (Rattus norvegicus [29]) was 1.44 m equiv and the V (Rattus norvegicus [30]) was 9.3 mL.
